# Columns and labels:
# Type in all cases: in vivo
# [1] = system: Cucurbit Leaf Beetle (Aulacophora Femoralis); assay: Test against cucurbit leaf beetle (Aulacophora femoralis), leaf dip; conditions: active compound concentration of 100 ppm, second instar larvae, after 7 days
# Method: (§1) Solvent: 3 parts by weight of dimethylformamide
# (§2) Emulsifier: 1 part by weight of polyoxyethylene alkyl phenyl ether
# Leaves of cucumber were immersed in the test solution at the appropriate concentration, and the leaves were dried in air. The leaves were then put in a plastic cup containing sterilized black soil and five Aulacophora femoralis at second instar larvae were released in the cup. The cups were placed in a temperature-controlled chamber at 25° C. After 7 days, the number of dead larvae was counted, and thus the insecticidal activity was calculated. An insecticidal activity of 100% means that all larvae were killed, whereas an insecticidal activity of 0% means that no larva was killed.
# [2] = system: Two-Spotted Spider Mite (Tetranychus Urticae); assay: Test against two-spotted spider mite (Tetranychus urticae), spray; conditions: active compound concentration of 100 ppm; adult mites; after 7 days
# Description: as §1, §2
# [3] = system: Tobacco Cutworm (Spodoptera litura) Larvae; assay: Test against tobacco cutworm (Spodoptera litura) larvae, leaf dip; conditions: active compound concentration of 100 ppm, third instar larvae, after 7 days
# Outline: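 Sweet potato leaves were dipped in the test solution (DMF solvent, polyoxyethylene alkyl phenyl ether emulsifier), air-dried and offered to ten third-instar larvae per dish at 25 °C, with fresh leaves added on days 2 and 4. Mortality was counted at day 7 and expressed as % insecticidal activity (100% = all dead).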
Compound,insecticidal activity [1],acaricidal activity [2],insecticidal activity [3],"pest or weed control at 100 ppm ([1]; Aulacophora, foliar, 168 h, read-out: insecticidal activity)","pest or weed control at 100 ppm ([3]; Spodoptera litura, foliar, 168 h, read-out: insecticidal activity)"
CSCC(=O)NCc1ccc(C(=O)Nc2c(Cl)cc(C(F)(C(F)(F)F)C(F)(F)C(F)(F)F)cc2Cl)cc1Cl (centres unmarked) [Compound 5-331],100%,100%,100%,–,–
CCC(=O)NCc1ccc(C(=O)Nc2c(Cl)cc(C(F)(C(F)(F)F)C(F)(F)F)cc2Cl)cc1 [Compound 5-224],100%,100%,–,–,–
CCc1cc(C(F)(C(F)(F)F)C(F)(F)F)cc(C)c1NC(=O)c1ccc(CNC(=O)c2cccnc2Cl)cc1 [Compound 5-41],100%,100%,100%,–,–
CCc1cc(C(F)(C(F)(F)F)C(F)(F)C(F)(F)F)cc(C)c1NC(=O)c1ccc(CNC(=O)CC(F)(F)F)c(F)c1 (centres unmarked) [Compound 5-148],100%,100%,100%,–,–
CCc1cc(C(F)(C(F)(F)F)C(F)(F)Br)cc(C)c1NC(=O)c1ccc(CNC(=O)CC(F)(F)F)c(Cl)c1 (centres unmarked) [Compound 5-221],100%,100%,100%,–,–
CCC(=O)NC1CCc2cc(C(=O)Nc3c(C)cc(C(F)(C(F)(F)F)C(F)(F)F)cc3CC)ccc21 (centres unmarked) [Compound 10-3],100%,100%,100%,–,–
CCc1cc(C(F)(C(F)(F)F)C(F)(F)F)cc(C)c1NC(=O)c1ccc(CNC(=O)c2ccc(F)cc2)cc1 [Compound 5-36],100%,100%,100%,–,–
CCc1cc(C(F)(C(F)(F)F)C(F)(F)Br)cc(C)c1NC(=O)c1ccc(CNC(=O)CSC)c(Cl)c1 (centres unmarked) [Compound 5-320],100%,100%,100%,–,–
Cc1cc(C(F)(C(F)(F)F)C(F)(F)F)cc(OC(F)F)c1NC(=O)c1ccc(CNC(=O)CC(F)(F)F)c(Cl)c1 [Compound 5-296],100%,100%,100%,–,–
CCc1cc(C(F)(C(F)(F)F)C(F)(F)F)cc(C)c1NC(=O)c1ccc(CNC(=O)c2cccnc2F)c(Br)c1 [Compound 5-93],100%,100%,100%,–,–
CCc1cc(C(F)(C(F)(F)F)C(F)(F)F)cc(C)c1NC(=O)c1ccc(CNC(=O)c2cccnc2F)c(C)c1 [Compound 5-103],100%,100%,100%,–,–
CCc1cc(C(F)(C(F)(F)F)C(F)(F)F)cc(C)c1NC(=O)c1ccc(CNC(C)=O)cc1F [Compound 5-44],100%,100%,–,–,–
CCc1cc(C(F)(C(F)(F)F)C(F)(F)F)cc(C)c1NC(=O)c1cc(F)c(CNC(C)=O)cc1F [Compound 5-58],100%,100%,100%,–,–
CCC(=O)NCc1ccc(C(=O)Nc2c(C)cc(C(F)(C(F)(F)F)C(F)(F)F)cc2CC)cc1Br [Compound 5-86],100%,100%,100%,–,–
Cc1cc(C(F)(C(F)(F)F)C(F)(F)F)cc(OC(F)F)c1NC(=O)c1ccc(CNC(=O)C2CC2)c(Cl)c1 [Compound 5-341],100%,100%,100%,–,–
Cc1cc(C(F)(C(F)(F)F)C(F)(F)F)cc(OC(F)F)c1NC(=O)c1ccc(C#N)cc1Cl [Compound I-12],100%,100%,100%,–,–
CCc1cc(C(F)(C(F)(F)F)C(F)(F)F)cc(C)c1NC(=O)c1ccc(CNC(=O)CC(F)(F)F)c(Cl)c1 [Compound 5-81],100%,100%,100%,–,–
CCc1cc(C(F)(C(F)(F)F)C(F)(F)C(F)(F)F)cc(C)c1NC(=O)c1ccc(CNC(=O)c2cccnc2F)c(Cl)c1 (centres unmarked) [Compound 5-155],100%,100%,100%,–,–
CCC(=O)NCc1ccc(C(=O)Nc2c(C)cc(C(F)(C(F)(F)F)C(F)(F)F)cc2CC)cc1Cl [Compound 5-78],100%,100%,100%,–,–
CCc1cc(C(F)(C(F)(F)F)C(F)(F)C(F)(F)F)cc(C)c1NC(=O)c1ccc(CNC(C)=O)c(Cl)c1 (centres unmarked) [Compound 5-150],100%,100%,100%,–,–

Compound,insecticidal activity [1],acaricidal activity [2],insecticidal activity [3],"pest or weed control at 100 ppm ([1]; Aulacophora, foliar, 168 h, read-out: insecticidal activity)","pest or weed control at 100 ppm ([3]; Spodoptera litura, foliar, 168 h, read-out: insecticidal activity)"
"CCc1cc(C(F)(C(F)(F)F)C(F)(F)F)cc(C)c1NC(=O)c1ccc(C(C)NC(C)=O)cc1 (centres unmarked) [Compound 9-2, 4-(1-acetamidoethyl)-N-[2-ethyl-4-(1,1,1,2,3,3,3-heptafluoropropan-2-yl)-6-methylphenyl]benzamide]",–,100%,–,100%,100%
CCC(=O)NCc1ccc(C(=O)Nc2c(C)cc(C(F)(C(F)(F)F)C(F)(F)F)cc2OC(F)F)cc1Cl [Compound 5-295],100%,100%,100%,–,–
CCC(=O)NCc1ccc(C(=O)Nc2c(Cl)cc(C(F)(C(F)(F)F)C(F)(F)C(F)(F)F)cc2Cl)cc1Cl (racemic) [Compound 5-243],100%,100%,100%,–,–
CCc1cc(C(F)(C(F)(F)F)C(F)(F)F)cc(C)c1NC(=O)c1cc(F)c(CNC(=O)CC2CC2)cc1F [Compound 5-61],100%,100%,100%,–,–
O=C(CC(F)(F)F)NCc1ccc(C(=O)Nc2c(Cl)cc(C(F)(C(F)(F)F)C(F)(F)C(F)(F)F)cc2Cl)cc1Cl (racemic) [Compound 5-244],100%,100%,100%,–,–
CC(=O)NCc1ccc(C(=O)Nc2c(C)cc(C(F)(C(F)(F)F)C(F)(F)F)cc2OC(F)F)cc1Cl [Compound 5-294],100%,100%,100%,–,–
Cc1cc(C(F)(C(F)(F)F)C(F)(F)C(F)(F)F)cc(C)c1NC(=O)c1ccc(CNC(=O)CC(F)(F)F)c(F)c1F (centres unmarked) [Compound 5-213],100%,100%,100%,–,–
CCC(=O)NCc1ccc(C(=O)Nc2c(C)cc(C(F)(C(F)(F)F)C(F)(F)C(F)(F)F)cc2CC)cc1Cl (centres unmarked) [Compound 5-151],100%,100%,100%,–,–
CCc1cc(C(F)(C(F)(F)F)C(F)(F)C(F)(F)F)cc(C)c1NC(=O)c1ccc(CNC(=O)CC(F)(F)F)c(Cl)c1 (centres unmarked) [Compound 5-154],100%,100%,100%,–,–
CCc1cc(C(F)(C(F)(F)F)C(F)(F)F)cc(C)c1NC(=O)c1ccc(CNC(=O)CC(F)(F)F)c(Br)c1 [Compound 5-89],100%,100%,100%,–,–
CCc1cc(C(F)(C(F)(F)F)C(F)(F)F)cc(C)c1NC(=O)c1ccc(CNC(C)=O)c(Cl)c1 [Compound 5-77],100%,100%,100%,–,–
CCc1cc(C(F)(C(F)(F)F)C(F)(F)F)cc(C)c1NC(=O)c1cc(F)c(CNC(=O)CC(F)(F)F)cc1F [Compound 5-62],100%,100%,100%,–,–
CCc1cc(C(F)(C(F)(F)F)C(F)(F)F)cc(C)c1NC(=O)c1ccc(CNC(=O)c2cccnc2F)cc1 [Compound 5-40],100%,100%,–,–,–
CCC(=O)NCc1ccc(C(=O)Nc2c(C)cc(C(F)(C(F)(F)F)C(F)(F)F)cc2CC)cc1F [Compound 5-72],–,100%,100%,–,–
CCc1cc(C(F)(C(F)(F)F)C(F)(F)F)cc(C)c1NC(=O)c1ccc(CNC(=O)CC(F)(F)F)c(I)c1 [Compound 5-192],–,100%,100%,–,–
CCc1cc(C(F)(C(F)(F)F)C(F)(F)F)cc(C)c1NC(=O)c1ccc2c(c1)CCCC2NC(C)=O (centres unmarked) [Compound 11-2],–,100%,100%,–,–
CCc1cc(C(F)(C(F)(F)F)C(F)(F)F)cc(C)c1NC(=O)c1ccc(CNC(=O)COC)c(Br)c1 [Compound 5-91],–,100%,100%,–,–
CCc1cc(C(F)(C(F)(F)F)C(F)(F)Br)cc(C)c1NC(=O)c1ccc(CNC(=O)CC2CC2)c(Cl)c1 (centres unmarked) [Compound 5-319],–,100%,100%,–,–
CCc1cc(C(F)(C(F)(F)F)C(F)(F)F)cc(C)c1NC(=O)c1ccc2c(c1)CCC2NC(=O)CC1CC1 (centres unmarked) [Compound 10-5],–,100%,100%,–,–
CCc1cc(C(F)(C(F)(F)F)C(F)(F)C(F)(F)F)cc(C)c1NC(=O)c1ccc(CNC(=O)CC2CC2)c(F)c1 (centres unmarked) [Compound 5-147],–,100%,100%,–,–
